According to patent US20230143604A1, “QW DOSING OF GIP RECEPTOR AGONIST PEPTIDE COMPOUNDS AND USES THEREOF” (TAKEDA PHARMACEUTICAL COMPANY LIMITED, priority 2020, published 2023):
Starred links: 1 amine or outer side, 2 acyl side, 3 side chain; linkers in the order of their positions; H or OH if unused. Positions of bridges follow the written chain, without caps; N, C: chain ends. Non-standard residues stand in square brackets, D forms with d. Residues, ends and D or L forms follow the SMILES beside them. Groups on a side chain read outwards from the residue. Chains are numbered I, II in the order given. *: point of attachment. C18 diacid = O=C(O)CCCCCCCCCCCCCCCCC(=O)*; C17 diacid = O=C(O)CCCCCCCCCCCCCCCC(=O)*; γGlu = O=C(O)[C@H](CCC(=O)[*:2])N[*:1]; NMeY = CN[C@@H](Cc1ccc(O)cc1)C(=O)O; AEEA = NCCOCCOCC(=O)O; Aib = CC(C)(N)C(=O)O

Experiment: Solubility in phosphate buffer pH 7.4
Summary of the method: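 3 mg of peptide treated with 100 μL portions of 200 mM phosphate buffer pH 7.4, sonicating/vortexing up to 1 min, with further buffer added until fully dissolved. Solubility then quantified by HPLC.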

Row | Structure (SMILES) | solubility (pH 7.4, aqueous buffer, pH 7.4 Phosphate Buffer - Solubility, 200 mM Phosphate buffer pH 7.4) | solubility (pH 7.4) | solubility (pH 7.4, aqueous buffer)
1 | CC[C@H](C)[C@H](NC(=O)[C@H](CO)NC(=O)[C@H](Cc1ccc(O)cc1)NC(=O)[C@H](CC(=O)O)NC(=O)[C@H](CO)NC(=O)[C@@H](NC(=O)[C@H](Cc1ccccc1)NC(=O)[C@@H](NC(=O)CNC(=O)[C@H](CCC(N)=O)NC(=O)C(C)(C)NC(=O)[C@H](Cc1ccc(O)cc1)NC)[C@@H](C)O)[C@@H](C)CC)C(=O)N[C@@H](C)C(=O)N[C@@H](CC(C)C)C(=O)N[C@@H](CC(=O)O)C(=O)N[C@@H](CCCNC(=N)N)C(=O)N[C@@H](CCCCNC(=O)CNC(=O)CNC(=O)CNC(=O)CNC(=O)CNC(=O)CNC(=O)CCCCCCCCCCCCCCCCC(=O)O)C(=O)N[C@@H](Cc1c[nH]cn1)C(=O)N[C@@H](CCC(N)=O)C(=O)NC(C)(C)C(=O)N[C@@H](CC(N)=O)C(=O)N[C@@H](Cc1ccccc1)C(=O)N[C@H](C(=O)N[C@@H](CC(N)=O)C(=O)N[C@@H](Cc1c[nH]c2ccccc12)C(=O)N[C@@H](CC(C)C)C(=O)N[C@@H](CC(C)C)C(=O)N[C@@H](C)C(=O)N[C@@H](CCC(N)=O)C(=O)N[C@@H](CCCNC(=N)N)C(=O)N1CCC[C@H]1C(=O)N[C@@H](CO)C(=O)N[C@@H](CO)C(=O)NCC(=O)N[C@@H](C)C(=O)N1CCC[C@H]1C(=O)N1CCC[C@H]1C(=O)N1CCC[C@H]1C(=O)N[C@@H](CO)C(=O)N[C@@H](CCCNC(=N)N)C(N)=O)C(C)C [Compound 278] | < 15 mg/mL | – | –
2 | CC[C@H](C)[C@H](NC(=O)[C@H](CO)NC(=O)[C@H](Cc1ccc(O)cc1)NC(=O)[C@H](CC(=O)O)NC(=O)[C@H](CO)NC(=O)[C@@H](NC(=O)[C@H](Cc1ccccc1)NC(=O)[C@@H](NC(=O)CNC(=O)[C@H](CCC(=O)O)NC(=O)C(C)(C)NC(=O)[C@@H](N)Cc1ccc(O)cc1)[C@@H](C)O)[C@@H](C)CC)C(=O)N[C@@H](C)C(=O)N[C@@H](CC(C)C)C(=O)N[C@@H](CC(=O)O)C(=O)N[C@@H](CCCCN)C(=O)N[C@@H](C)C(=O)N[C@@H](CCCCNC(=O)COCCOCCNC(=O)COCCOCCNC(=O)CC[C@H](NC(=O)CCCCCCCCCCCCCCCCC(=O)O)C(=O)O)C(=O)N[C@@H](CCC(N)=O)C(=O)NC(C)(C)C(=O)N[C@@H](CC(=O)O)C(=O)N[C@@H](Cc1ccccc1)C(=O)N[C@H](C(=O)N[C@@H](CCC(=O)O)C(=O)N[C@@H](Cc1c[nH]c2ccccc12)C(=O)N[C@@H](CC(C)C)C(=O)N[C@@H](CC(C)C)C(=O)N[C@@H](C)C(=O)N[C@@H](CCC(N)=O)C(=O)N[C@@H](CCCNC(=N)N)C(=O)NCC(=O)O)C(C)C [Compound 161] (H-Y[Aib]EGTFISDYSIALDKAK([AEEA-AEEA-γGlu-C18 diacid])Q[Aib]DFVEWLLAQRG-OH) | – | ≥ 15 mg/mL | ≥ 30 mg/mL
3 | CC[C@H](C)[C@H](NC(=O)[C@H](CO)NC(=O)[C@H](Cc1ccc(O)cc1)NC(=O)[C@H](CC(=O)O)NC(=O)[C@H](CO)NC(=O)[C@@H](NC(=O)[C@H](Cc1ccccc1)NC(=O)[C@@H](NC(=O)CNC(=O)[C@H](CCC(=O)O)NC(=O)[C@@H](C)NC(=O)[C@H](Cc1ccc(O)cc1)NC)[C@@H](C)O)[C@@H](C)CC)C(=O)N[C@@H](C)C(=O)N[C@@H](CC(C)C)C(=O)N[C@@H](CC(=O)O)C(=O)N[C@@H](CCCNC(=N)N)C(=O)N[C@H](C(=O)N[C@@H](Cc1c[nH]cn1)C(=O)N[C@@H](CCC(N)=O)C(=O)N[C@@H](CCC(N)=O)C(=O)N[C@@H](CC(N)=O)C(=O)N[C@@H](Cc1ccccc1)C(=O)N[C@H](C(=O)N[C@@H](CC(N)=O)C(=O)N[C@@H](Cc1c[nH]c2ccccc12)C(=O)N[C@@H](CC(C)C)C(=O)N[C@@H](CC(C)C)C(=O)N[C@@H](C)C(=O)N[C@@H](CCC(N)=O)C(=O)N[C@@H](CCCCNC(=O)COCCOCCNC(=O)COCCOCCNC(=O)CC[C@H](NC(=O)CCCCCCCCCCCCCCCCC(=O)O)C(=O)O)C(=O)O)C(C)C)[C@@H](C)CC [Compound 243] (H-[NMeY][dA]EGTFISDYSIALDRIHQQNFVNWLLAQK([AEEA-AEEA-γGlu-C18 diacid])-OH; N-terminus and C-terminus assumed) | – | – | ≥ 7 mg/mL
4 | CC[C@H](C)[C@H](NC(=O)[C@H](CO)NC(=O)[C@H](Cc1ccc(O)cc1)NC(=O)[C@H](CC(=O)O)NC(=O)[C@H](CO)NC(=O)[C@@H](NC(=O)[C@H](Cc1ccccc1)NC(=O)[C@@H](NC(=O)CNC(=O)[C@H](CCC(=O)O)NC(=O)C(C)(C)NC(=O)[C@H](Cc1ccc(O)cc1)NC)[C@@H](C)O)[C@@H](C)CC)C(=O)N[C@@H](C)C(=O)N[C@@H](CCCCNC(=O)COCCOCCNC(=O)COCCOCCNC(=O)CC[C@H](NC(=O)CCCCCCCCCCCCCCCC(=O)O)C(=O)O)C(=O)N[C@@H](CC(=O)O)C(=O)N[C@@H](CCCNC(=N)N)C(=O)NC(C)(C)C(=O)N[C@@H](C)C(=O)N[C@@H](CCC(N)=O)C(=O)NC(C)(C)C(=O)N[C@@H](CC(N)=O)C(=O)N[C@@H](Cc1ccccc1)C(=O)N[C@H](C(=O)N[C@@H](CC(N)=O)C(=O)N[C@@H](Cc1c[nH]c2ccccc12)C(=O)N[C@@H](CC(C)C)C(=O)N[C@@H](CC(C)C)C(=O)N[C@@H](C)C(=O)N[C@@H](CCC(N)=O)C(=O)N[C@@H](CO)C(=O)O)C(C)C [Compound 10] (H-[NMeY][Aib]EGTFISDYSIAK([AEEA-AEEA-γGlu-C17 diacid])DR[Aib]AQ[Aib]NFVNWLLAQS-OH) | – | ≥ 15 mg/mL | ≥ 30 mg/mL
5 | CC[C@H](C)[C@H](NC(=O)[C@H](CO)NC(=O)[C@H](Cc1ccc(O)cc1)NC(=O)[C@H](CC(=O)O)NC(=O)[C@H](CO)NC(=O)[C@@H](NC(=O)[C@H](Cc1ccccc1)NC(=O)[C@@H](NC(=O)CNC(=O)[C@H](CCC(=O)O)NC(=O)C(C)(C)NC(=O)[C@H](Cc1ccc(O)cc1)NC)[C@@H](C)O)[C@@H](C)CC)C(=O)N[C@@H](C)C(=O)N[C@@H](CCCCNC(=O)CNC(=O)CNC(=O)[C@@H]1CCCN1C(=O)[C@H](C)NC(=O)[C@@H]1CCCN1C(=O)[C@H](C)NC(=O)[C@@H]1CCCN1C(=O)CCCCCCCCCCCCCCCCC(=O)O)C(=O)N[C@@H](CC(=O)O)C(=O)N[C@@H](CCCNC(=N)N)C(=O)NC(C)(C)C(=O)N[C@@H](C)C(=O)N[C@@H](CCC(N)=O)C(=O)NC(C)(C)C(=O)N[C@@H](CC(=O)O)C(=O)N[C@@H](Cc1ccccc1)C(=O)N[C@H](C(=O)N[C@@H](CC(N)=O)C(=O)N[C@@H](Cc1c[nH]c2ccccc12)C(=O)N[C@@H](CC(C)C)C(=O)N[C@@H](CC(C)C)C(=O)N[C@@H](C)C(=O)N[C@@H](CCC(N)=O)C(=O)N[C@@H](CCCCN)C(=O)NCC(=O)O)C(C)C [Compound 289] (I: H-[NMeY][Aib]EGTFISDYSIAKDR[Aib]AQ[Aib]DFVNWLLAQKG-OH / II: {C18 diacid}-PAPAPGG; amide I:14-II:C) | – | – | ≥ 10 mg/mL
